# Assays:
# [1] = biological target: T1, recombinant human proteasome β1 subunit (Homo sapiens, UniProt P28072); assay: Enzyme activity of recombinant proteasome catalytic β1 subunit (Z-LLE-AMC); format: biochemical; conditions: 50 μM Z-LLE-AMC, 2 h incubation
# T1 construct: His-Tag; made in house; host or cells: Escherichia coli
# T1 sequence (P28072 1-239): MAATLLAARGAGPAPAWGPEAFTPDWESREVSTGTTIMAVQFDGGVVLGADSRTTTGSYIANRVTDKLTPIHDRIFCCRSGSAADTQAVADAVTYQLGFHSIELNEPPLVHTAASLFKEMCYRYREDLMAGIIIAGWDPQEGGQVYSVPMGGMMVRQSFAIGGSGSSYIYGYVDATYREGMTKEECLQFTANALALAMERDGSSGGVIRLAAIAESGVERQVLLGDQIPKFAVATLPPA
# Protocol: Briefly, catalytic activity of the recombinant human proteasome β1 subunit was assayed by adding recombinant β1 subunit protein (30 μg) to 100 μL of proteasome activity assay buffer (10 mM Tris-HCL, pH 7.8, 5 mM adenosine triphosphate, 0.5 mM dithiothreitol and 5 mM MgCL2•6H2O) containing 50 μM Z-LLE-AMC in the presence of fangchinoline or tetrandrine at different concentrations or not. The hydrolase activity of the proteasome catalytic β1 subunit could release the fluorogenic AMC component from substrate Z-LLE-AMC and the AMC release was measured after 2 h incubation using a Microplate Reader Bio-Rad 550 with excitation and emission wavelengths of 360 and 465 nm, respectively.
# [2] = biological target: T1, recombinant human proteasome β1 subunit; assay: Surface plasmon resonance (Biacore) binding assay
# Protocol: The recombinant human proteasome β1 subunit, product of PSMB6 gene, was expressed as His-Tag proteins using Escherichia coli, and then purified by affinity chromatography as reported in our previous study. The binding affinities of fangchinoline or tetrandrine to recombinant proteasome catalytic β1 subunit, were assayed in vitro using an Biacore 3000 instrument (Biacore AB, Rapsgatan 7, S-754 50 Uppsala, Sweden) as reported before. Briefly, recombinant proteasome β1 subunit protein was immobilized on a CM5 sensor chip as ligand in 11624.5 RU with N-ethyl-N’-(3-dimethylaminopropyl) carbodiimide and N-hydroxysuccinimide according to the standard primary amine-coupling procedures, and HBS-EP (10 mM HEPES, 150 mM NaCl, 3 mM EDTA, 0.005% (v/v) surfactant P20, pH 7.4) was used as the running buffer. Equilibration of the baseline was performed by a continuous flow of HBS-EP through the chip surface for 1 to 2 h. Biacore data were collected at 25°C with HBS-EP as the running buffer at a constant flow of 20 μL/min. Fangchinoline or tetradrine was serially diluted into the running buffer to 0, 2.4, 3.43, 4.90, 7.0, 10 and 20 μM. The samples were injected into the channels at a flow rate of 20 μL/min, followed by washing with the running buffer. The binding responses were recorded continuously in response units (RU) at a frequency of 1Hz as sensorgrams and presented as a function of time. The association (k a) and dissociation (k d) rate constants, the equilibrium dissociation constant ( KD=kd/ka ) were determined by analysis of the sensorgram-curves obtained at different concentrations of the compound by use of BIA evaluation software version 3.1 (Biacore) and the 1:1 Langmuir binding fitting model.
smiles,measurement,setting,value
"COc1ccc2cc1Oc1ccc(cc1)C[C@H]1c3cc(c(OC)cc3CCN1C)Oc1c(OC)c(OC)cc3c1[C@H](C2)N(C)CC3 [tetrandrine, reference compound]",Inhibition of enzyme activity of recombinant proteasome β1 subunit,[1],directly inhibit
same,Dissociation (k d),"[2]; Biacore, 25°C, 1:1 Langmuir model",0.0162 S^-1
same,Kd,"[2]; Biacore, 25°C, 1:1 Langmuir model, read-out: Equilibrium dissociation (K D)",5.61 µM
same,kon,"[2]; pH 7.4, read-out: Association (k a)",2890 M⁻¹ s⁻¹

# From paper PMC4626104, “Inhibition on Proteasome β1 Subunit Might Contribute to the Anti-Cancer Effects of Fangchinoline in Human Prostate Cancer Cells” (PLoS ONE, 2015)
